Test results as given in PubChem BioAssay AID1918996 (Molecular Pharmacology Branch, DTP, NCI, 2023).
One block for each compound: values may come before it.

Test system: 349418-098-R-PDC complex spheroid growth
Assay: Anticancer human tumor 349418-098-R-PDC patient-derived lung adenocarcinoma cell line growth inhibition [AhR]
Details: for IC50: curve of first compound; for viability, T/C: stronger effect = lower value
Procedure, shortened: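 Complex tumor spheroids co-cultured with HUVEC and human MSC stroma; AhR antagonists tested in combination with standard-of-care and investigational agents. Top concentration at or near clinical Cmax (else 10 microM), half-log dilutions; growth expressed as percent test/control.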

[1] = second compound 0.1 µM, first compound 0.0316 µM
[2] = second compound 0.1 µM, first compound 0.1 µM
[3] = second compound 0.1 µM, first compound 0.316 µM
[4] = second compound 0.1 µM, first compound 1 µM
[5] = second compound 0.1 µM, first compound 3.16 µM
[6] = second compound 0.1 µM, first compound 10 µM
[7] = second compound 0.316 µM, first compound 0.0316 µM
[8] = second compound 0.316 µM, first compound 0.1 µM
[9] = second compound 0.316 µM, first compound 0.316 µM
[10] = second compound 0.316 µM, first compound 1 µM
[11] = second compound 0.316 µM, first compound 3.16 µM
[12] = second compound 0.316 µM, first compound 10 µM
[13] = second compound 1 µM, first compound 0.0316 µM
[14] = second compound 1 µM, first compound 0.1 µM
[15] = second compound 1 µM, first compound 0.316 µM
[16] = second compound 1 µM, first compound 1 µM
[17] = second compound 1 µM, first compound 3.16 µM
[18] = second compound 1 µM, first compound 10 µM
[19] = second compound 3.16 µM, first compound 0.0316 µM
[20] = second compound 3.16 µM, first compound 0.1 µM
[21] = second compound 3.16 µM, first compound 0.316 µM
[22] = second compound 3.16 µM, first compound 1 µM
[23] = second compound 3.16 µM, first compound 3.16 µM
[24] = second compound 3.16 µM, first compound 10 µM
[25] = second compound 10 µM, first compound 0.0316 µM
[26] = second compound 10 µM, first compound 0.1 µM
[27] = second compound 10 µM, first compound 0.316 µM
[28] = second compound 10 µM, first compound 1 µM
[29] = second compound 10 µM, first compound 3.16 µM
[30] = second compound 10 µM, first compound 10 µM
[31] = second compound 0.1 µM, first compound 0.00949 µM
[32] = second compound 0.1 µM, first compound 0.03 µM
[33] = second compound 0.1 µM, first compound 0.0949 µM
[34] = second compound 0.1 µM, first compound 0.3 µM
[35] = second compound 0.316 µM, first compound 0.00949 µM
[36] = second compound 0.316 µM, first compound 0.03 µM
[37] = second compound 0.316 µM, first compound 0.0949 µM
[38] = second compound 0.316 µM, first compound 0.3 µM
[39] = second compound 1 µM, first compound 0.00949 µM
[40] = second compound 1 µM, first compound 0.03 µM
[41] = second compound 1 µM, first compound 0.0949 µM
[42] = second compound 1 µM, first compound 0.3 µM
[43] = second compound 3.16 µM, first compound 0.00949 µM
[44] = second compound 3.16 µM, first compound 0.03 µM
[45] = second compound 3.16 µM, first compound 0.0949 µM
[46] = second compound 3.16 µM, first compound 0.3 µM
[47] = second compound 10 µM, first compound 0.00949 µM
[48] = second compound 10 µM, first compound 0.03 µM
[49] = second compound 10 µM, first compound 0.0949 µM
[50] = second compound 10 µM, first compound 0.3 µM
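Further: spheroids exposed to agents for seven days before luminescence viability read.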
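Wherever viability, T/C is given: spheroids also contain HUVEC endothelial cells and human MSC stroma.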

- IC50 (second compound 0.1 µM): 5800 nM
- IC50 (second compound 0.316 µM): 6030 nM
- IC50 (second compound 1 µM): 6540 nM
- IC50 (second compound 3.16 µM): 3540 nM
- IC50 (second compound 10 µM): 3260 nM
SMILES: CC1(C)CCC(CN2CCN(c3ccc(C(=O)NS(=O)(=O)c4ccc(NCC5CCOCC5)c([N+](=O)[O-])c4)c(Oc4cnc5[nH]ccc5c4)c3)CC2)=C(c2ccc(Cl)cc2)C1 + Cc1ccccc1N=Nc1ccc(NC(=O)c2ccnn2C)c(C)c1
- viability, T/C [1]: 116%
- viability, T/C [2]: 111%
- viability, T/C [3]: 116%
- viability, T/C [4]: 92.9%
- viability, T/C [5]: 71.6%
- viability, T/C [6]: 31.6%
- viability, T/C [7]: 81.5%
- viability, T/C [8]: 81.1%
- viability, T/C [9]: 64.4%
- viability, T/C [10]: 70%
- viability, T/C [11]: 86.1%
- viability, T/C [12]: 29.1%
- viability, T/C [13]: 101%
- viability, T/C [14]: 82.1%
- viability, T/C [15]: 84.7%
- viability, T/C [16]: 79.7%
- viability, T/C [17]: 85.7%
- viability, T/C [18]: 29.2%
- viability, T/C [19]: 76.9%
- viability, T/C [20]: 65.9%
- viability, T/C [21]: 73.3%
- viability, T/C [22]: 66.1%
- viability, T/C [23]: 52%
- viability, T/C [24]: 26%
- viability, T/C [25]: 54.6%
- viability, T/C [26]: 59.8%
- viability, T/C [27]: 65.1%
- viability, T/C [28]: 51.8%
- viability, T/C [29]: 52%
- viability, T/C [30]: 25.9%

- IC50 (second compound 0.1 µM): 2080 nM
- IC50 (second compound 0.316 µM): 2000 nM
- IC50 (second compound 1 µM): 1960 nM
- IC50 (second compound 3.16 µM): 2040 nM
- IC50 (second compound 10 µM): 1030 nM
SMILES: CC1COCCN1c1cc(C2(S(C)(=N)=O)CC2)nc(-c2ccnc3[nH]ccc23)n1 (stereo not given) + Cc1ccccc1N=Nc1ccc(NC(=O)c2ccnn2C)c(C)c1
- viability, T/C [1]: 87%
- viability, T/C [2]: 110%
- viability, T/C [3]: 86.5%
- viability, T/C [4]: 83.6%
- viability, T/C [5]: 31%
- viability, T/C [6]: 14.4%
- viability, T/C [7]: 87.8%
- viability, T/C [8]: 78%
- viability, T/C [9]: 78.6%
- viability, T/C [10]: 89.7%
- viability, T/C [11]: 27.7%
- viability, T/C [12]: 13.4%
- viability, T/C [13]: 89.2%
- viability, T/C [14]: 123%
- viability, T/C [15]: 86.8%
- viability, T/C [16]: 66.8%
- viability, T/C [17]: 39.9%
- viability, T/C [18]: 16%
- viability, T/C [19]: 90.8%
- viability, T/C [20]: 76.9%
- viability, T/C [21]: 97.9%
- viability, T/C [22]: 79.3%
- viability, T/C [23]: 31.8%
- viability, T/C [24]: 15.3%
- viability, T/C [25]: 69.5%
- viability, T/C [26]: 70.1%
- viability, T/C [27]: 56.6%
- viability, T/C [28]: 55.5%
- viability, T/C [29]: 28.9%
- viability, T/C [30]: 17.1%

- IC50 (second compound 0.1 µM): > 3000 nM
- IC50 (second compound 0.316 µM): > 3000 nM
- IC50 (second compound 1 µM): 1550 nM
- IC50 (second compound 3.16 µM): 1450 nM
- IC50 (second compound 10 µM): 154 nM
SMILES: CCN(c1cc(-c2ccc(CN3CCOCC3)cc2)cc(C(=O)NCc2c(C)cc(C)[nH]c2=O)c1C)C1CCOCC1 + Cc1ccccc1N=Nc1ccc(NC(=O)c2ccnn2C)c(C)c1
- viability, T/C [31]: 68.2%
- viability, T/C [32]: 97.2%
- viability, T/C [33]: 67.4%
- viability, T/C [34]: 56.3%
- viability, T/C (second compound 0.1 µM, first compound 0.949 µM): 86.4%
- viability, T/C (second compound 0.1 µM, first compound 3 µM): 53.1%
- viability, T/C [35]: 101%
- viability, T/C [36]: 69.1%
- viability, T/C [37]: 95.9%
- viability, T/C [38]: 72.4%
- viability, T/C (second compound 0.316 µM, first compound 0.949 µM): 70.4%
- viability, T/C (second compound 0.316 µM, first compound 3 µM): 64%
- viability, T/C [39]: 87.8%
- viability, T/C [40]: 121%
- viability, T/C [41]: 85.5%
- viability, T/C [42]: 78.3%
- viability, T/C (second compound 1 µM, first compound 0.949 µM): 56.5%
- viability, T/C (second compound 1 µM, first compound 3 µM): 42%
- viability, T/C [43]: 76.8%
- viability, T/C [44]: 68.9%
- viability, T/C [45]: 75.2%
- viability, T/C [46]: 59%
- viability, T/C (second compound 3.16 µM, first compound 0.949 µM): 55.8%
- viability, T/C (second compound 3.16 µM, first compound 3 µM): 42.3%
- viability, T/C [47]: 59.4%
- viability, T/C [48]: 71.1%
- viability, T/C [49]: 54.9%
- viability, T/C [50]: 38.4%
- viability, T/C (second compound 10 µM, first compound 0.949 µM): 49.2%
- viability, T/C (second compound 10 µM, first compound 3 µM): 42.1%

- IC50 (second compound 0.1 µM): > 100 nM
- IC50 (second compound 0.316 µM): > 100 nM
- IC50 (second compound 1 µM): > 100 nM
- IC50 (second compound 3.16 µM): > 100 nM
- IC50 (second compound 10 µM): > 100 nM
SMILES: Cn1ncnc1C1c2n[nH]c(=O)c3cc(F)cc(c23)NC1c1ccc(F)cc1 (stereo not given) + Cc1ccccc1N=Nc1ccc(NC(=O)c2ccnn2C)c(C)c1
- viability, T/C (second compound 0.1 µM, first compound 0.000316 µM): 106%
- viability, T/C (second compound 0.1 µM, first compound 0.001 µM): 93.8%
- viability, T/C (second compound 0.1 µM, first compound 0.00316 µM): 118%
- viability, T/C (second compound 0.1 µM, first compound 0.01 µM): 56.1%
- viability, T/C [1]: 99.1%
- viability, T/C [2]: 67.4%
- viability, T/C (second compound 0.316 µM, first compound 0.000316 µM): 110%
- viability, T/C (second compound 0.316 µM, first compound 0.001 µM): 87.2%
- viability, T/C (second compound 0.316 µM, first compound 0.00316 µM): 113%
- viability, T/C (second compound 0.316 µM, first compound 0.01 µM): 74.1%
- viability, T/C [7]: 115%
- viability, T/C [8]: 71.6%
- viability, T/C (second compound 1 µM, first compound 0.000316 µM): 82.9%
- viability, T/C (second compound 1 µM, first compound 0.001 µM): 102%
- viability, T/C (second compound 1 µM, first compound 0.00316 µM): 106%
- viability, T/C (second compound 1 µM, first compound 0.01 µM): 89.9%
- viability, T/C [13]: 94.2%
- viability, T/C [14]: 80.6%
- viability, T/C (second compound 3.16 µM, first compound 0.000316 µM): 72.1%
- viability, T/C (second compound 3.16 µM, first compound 0.001 µM): 90.2%
- viability, T/C (second compound 3.16 µM, first compound 0.00316 µM): 98.8%
- viability, T/C (second compound 3.16 µM, first compound 0.01 µM): 79%
- viability, T/C [19]: 71.4%
- viability, T/C [20]: 63.6%
- viability, T/C (second compound 10 µM, first compound 0.000316 µM): 61.5%
- viability, T/C (second compound 10 µM, first compound 0.001 µM): 71.8%
- viability, T/C (second compound 10 µM, first compound 0.00316 µM): 76.2%
- viability, T/C (second compound 10 µM, first compound 0.01 µM): 51.2%
- viability, T/C [25]: 70.8%
- viability, T/C [26]: 55.6%

- IC50 (second compound 0.1 µM): 90.5 nM
- IC50 (second compound 0.316 µM): 80.4 nM
- IC50 (second compound 1 µM): 63.9 nM
- IC50 (second compound 3.16 µM): 109 nM
- IC50 (second compound 10 µM): 56.9 nM
SMILES: Nc1ncn(C2CC(O)C(CO)S2)c(=O)n1 (stereo not given) + Cc1ccccc1N=Nc1ccc(NC(=O)c2ccnn2C)c(C)c1
- viability, T/C (second compound 0.1 µM, first compound 0.000949 µM): 116%
- viability, T/C (second compound 0.1 µM, first compound 0.003 µM): 87.8%
- viability, T/C [31]: 83.4%
- viability, T/C [32]: 59.1%
- viability, T/C [33]: 60.5%
- viability, T/C [34]: 28.6%
- viability, T/C (second compound 0.316 µM, first compound 0.000949 µM): 111%
- viability, T/C (second compound 0.316 µM, first compound 0.003 µM): 63.5%
- viability, T/C [35]: 105%
- viability, T/C [36]: 70.2%
- viability, T/C [37]: 47.7%
- viability, T/C [38]: 26.6%
- viability, T/C (second compound 1 µM, first compound 0.000949 µM): 91.5%
- viability, T/C (second compound 1 µM, first compound 0.003 µM): 92.7%
- viability, T/C [39]: 98.7%
- viability, T/C [40]: 67.5%
- viability, T/C [41]: 41.4%
- viability, T/C [42]: 20.8%
- viability, T/C (second compound 3.16 µM, first compound 0.000949 µM): 52.2%
- viability, T/C (second compound 3.16 µM, first compound 0.003 µM): 72.7%
- viability, T/C [43]: 72.2%
- viability, T/C [44]: 66.2%
- viability, T/C [45]: 54.5%
- viability, T/C [46]: 18.1%
- viability, T/C (second compound 10 µM, first compound 0.000949 µM): 73.6%
- viability, T/C (second compound 10 µM, first compound 0.003 µM): 67.5%
- viability, T/C [47]: 65.7%
- viability, T/C [48]: 62.1%
- viability, T/C [49]: 40.8%
- viability, T/C [50]: 28.9%
